In brackets after ≈: the same amount, converted by molar mass.
How the values were obtained:
[1] = system: Human breast cancer cell lines; assay: XTT cytotoxicity assay, human breast cancer cell lines; format: cell-based; details: 5 human breast cancer cell lines, read-out: LC50 (the source's name)
Protocol: (§1) Cytotoxicity can be easily measured using XTT assays, which provide an indication of mitochondrial activity. The XTT assay is a non-radioactive alternative for the [^51Cr] release cytotoxicity assay. XTT is a tetrazolium salt that is reduced to a formazan dye only by metabolically active, viable cells. The reduction of XTT is measured spectrophotometrically as OD490-OD650. Thus, cells that are actively metabolizing will form reaction product when subjected to XTT measurement.
(§2) For this experiment, cells were cultured under standard culture conditions. MCF7 human breast cancer cells were cultured in DMEM containing 5 mM glucose medium with 10% fetal calf serum, 0.01 mg/ml insulin and 1% penicillin/streptomycin. To measure the cytotoxicity of specific compounds against cancer cells, 9×10^3 MCF7 cells were plated per well in 96-well plates. Following overnight culture, the compounds, dissolved in DMSO, were added to the wells in 1 μl volume at specified concentrations. Vehicle controls were run for each experiment. Each condition was run in triplicate. […] Plates were read at OD490 on a PerkinElmer Victor 1420. […]
(§3) Using the XTT assay, LC50 values for C31 were determined for numerous human cancer cell lines and human hepatocytes, as shown in the following table: […]

[2] = system: Human ovarian cancer cell lines; assay: XTT cytotoxicity assay, human ovarian cancer cell lines; format: cell-based; details: 2 human ovarian cancer cell lines, read-out: LC50 (the source's name)
Protocol: as §1, §2, §3

[3] = system: MCF7 human breast cancer cells; assay: XTT cytotoxicity assay, MCF7; format: cell-based
Protocol: as §1
For this experiment, cells were cultured under standard culture conditions. MCF7 human breast cancer cells were cultured in DMEM containing 5 mM glucose medium with 10% fetal calf serum, 0.01 mg/ml insulin and 1% penicillin/streptomycin. To measure the cytotoxicity of specific compounds against cancer cells, 9×10^3 MCF7 cells were plated per well in 96-well plates. Following overnight culture, the compounds, dissolved in DMSO, were added to the wells in 1 μl volume at specified concentrations. Vehicle controls were run for each experiment. Each condition was run in triplicate. After 24 to 72 h of incubation, cells were incubated for 4 hours with the XTT reagent as per manufacturer's instructions (Cell Proliferation Kit II (XTT) Roche Diagnostics, New Jersey). Plates were read at OD490 on a PerkinElmer Victor 1420. Three wells containing the XTT reagent without cells served as the plate blank. XTT data were reported as OD490.
MCF7 human breast cancer cells were cultured in DMEM containing 1 mM or 5 mM glucose in the medium with 10% fetal calf serum, 0.01 mg/ml insulin and 1% penicillin/streptomycin. The cells were grown in two oxygen conditions, normoxia (21% 02) or hypoxia (1% 02). To measure the cytotoxicity of specific compounds against cancer cells, 9×10^3 MCF7 cells were plated per well in 96-well plates. Following overnight culture, the compounds, dissolved in DMSO, were added to the wells in 1 μl volume at specified concentrations. After 24 to 72 h of incubation, cells were incubated for 4 h with the XTT reagent as per manufacturer's instructions (Cell Proliferation Kit II (XTT) Roche Diagnostics, New Jersey). Plates were read at OD490 on a PerkinElmer Victor 1420. Three wells containing the XTT reagent without cells served as the plate blank. XTT data were reported as OD490Vehicle controls were run for each experiment. Each condition was run in triplicate.

[4] = system: SKOV3 human ovarian cancer xenograft; assay: tumor xenograft size, SKOV3; format: in vivo, Athymic Nude mice
Protocol: Xenograft studies were performed using various mmFAS inhibitors disclosed herein. Human cancer xenograft studies are known in the art. (See Pizer et al., Cancer Res. 56:1189-1193, 1996; Pizer et al., Cancer Res. 60: 213-218, 2000; Testa et al., Oncogene 24: 7455-7464, 2005).
In particular, C31 mouse efficacy studies were conducted in order to evaluate anti-neoplastic activity of C31 in vivo. Athymic Nude mice were implanted with HCT116 human colon, SKOV3 human ovarian or OVCAR3 human ovarian cancer cell lines and were treated when the grown tumor xenografts reached at least 150 to 200 mm^3.^1 ^1 Compounds were solubilized in TEP (80% polyethylene glycol (PEG) 400, 10% ethanol, 10% tween-80) in a volume of 50 μL.

CCCCCCCCC1(C)SC(=O)C=C1OCC(=O)Nc1ccc(Cl)cc1 (stereo not drawn) [Compound C31]
CC50 [1]: 3.3 to 16.7 µg/mL (≈ 8.05 to 40.7 µM) | CC50 [2]: 6 to 8.1 µg/mL (≈ 14.6 to 19.8 µM) | cytotoxicity (XTT) ([3]; MCF7, 1 mM or 5 mM glucose, 1% or 21% O2, FIG. 9): increases if the cells are hypoglycemic and even more if the cells are hypoxic | cytotoxicity / cell viability (XTT) ([3]; MCF7, standard culture, FIG. 4 A, B): concentration-dependent cytotoxicity | Average Tumor Size Endpoint (% Change) ([4]; Study 11007, SKOV-3, oral b.i.d. 11 days, 50 mg/kg): −78 % Change | Average Tumor Size Endpoint (% Change) ([4]; Study 52307, SKOV-3, oral b.i.d. 15 days, 50 mg/kg): −75 % Change | Average Tumor Size Endpoint (% Change) ([4]; Study 121306, SKOV-3, IP b.i.d. 12 days, 10 mg/kg): +179 % Change | Average Tumor Size Endpoint (% Change) ([4]; Study 121306, SKOV-3, IP b.i.d. 12 days, 50 mg/kg): −78 % Change | Average Tumor Size Endpoint (% Change) ([4]; Study 121306, SKOV-3, IP b.i.d. 12 days, 100 mg/kg): −78 % Change | Average Tumor Size Endpoint (% Change) ([4]; Study 3150772607, SKOV-3, IP b.i.d. 10 days, 25 mg/kg): −74 % Change | Average Tumor Size Endpoint (% Change) ([4]; Study 3150772607, SKOV-3, IP b.i.d. 10 days, 50 mg/kg): −87 % Change | Average Tumor Size Endpoint (% Change) ([4]; Study 3150772607, SKOV-3, IP b.i.d. 10 days, 150 mg/kg): −83 % Change
